Measurements reported in US20160159789A1, “SUBSTITUTED PYRAZOLOPYRIDINES” (BAYER PHARMA AKTIENGESELLSCHAFT, priority 2013, published 2016).

Target: T1, human full-length MKNK1 (Homo sapiens, UniProt Q9BUB5, T385D)
T1 construct: purchased Carna Biosciences 02-145; host or cells: insect cells (baculovirus expression system)
Test: MKNK1 kinase high ATP assay (TR-FRET)
Type: biochemical
Conditions: high ATP (2 mM final), 15 min preincubation with enzyme, GST-MKNK1 (T344D)
Summary of the method: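 GST-tagged full-length human MKNK1 from insect cells, preincubated 15 min with compound at 22° C in HEPES pH 7.5/MgCl2/DTT buffer, then reacted 30 min with 2 mM ATP and 0.06 μM biotinylated peptide (final). Phosphopeptide detected by TR-FRET (anti-pS6 pSer236/Eu-ProteinG, streptavidin-XL665), 665/620 ratio normalised to no-enzyme and no-inhibitor controls.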

T1 sequence (Q9BUB5 1-424 isoform Q9BUB5-2 T344D): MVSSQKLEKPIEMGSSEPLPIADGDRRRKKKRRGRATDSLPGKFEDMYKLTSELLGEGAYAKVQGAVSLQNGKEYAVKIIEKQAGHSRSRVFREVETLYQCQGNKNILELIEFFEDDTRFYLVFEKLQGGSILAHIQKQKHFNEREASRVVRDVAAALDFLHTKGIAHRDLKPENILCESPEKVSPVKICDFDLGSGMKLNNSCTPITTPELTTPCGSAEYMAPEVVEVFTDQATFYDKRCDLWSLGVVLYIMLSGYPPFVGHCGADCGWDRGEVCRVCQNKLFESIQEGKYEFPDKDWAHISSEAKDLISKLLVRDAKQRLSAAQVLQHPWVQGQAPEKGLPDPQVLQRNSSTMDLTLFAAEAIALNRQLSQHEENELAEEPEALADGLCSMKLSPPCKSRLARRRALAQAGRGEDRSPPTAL

SMILES	IC50
CN(CC(C)(C)O)C(=O)[C@H]1CCc2c(sc3ncnc(Nc4cc5cn[nH]c5cn4)c23)C1 [Example 47, (7S)—N-(2-Hydroxy-2-methylpropyl)-N-methyl-4-(1H-pyrazolo[3,4-c]pyridin-5-ylamino)-5,6,7,8-tetrahydro[1]benzothieno[2,3-d]pyrimidine-7-carboxamide]	11.1 nM
O=C([C@H]1CCc2c(sc3ncnc(Nc4cc5cn[nH]c5nc4O)c23)C1)N1C[C@@H]2C[C@H]1CO2 [Example 115]	6.9 nM
CCc1[nH]c2ncnc(Nc3cc4cn[nH]c4cn3)c2c1C [Example 8, N-(6-Ethyl-5-methyl-7H-pyrrolo[2,3-d]pyrimidin-4-yl)-1H-pyrazolo[3,4-c]pyridin-5-amine]	11.5 nM
CN(C)CCCN(C)C(=O)c1[nH]c2ncnc(Nc3cc4cn[nH]c4nc3O)c2c1Br [Example 132, 5-Bromo-N-[3-(dimethylamino)propyl]-4-[(6-hydroxy-1H-pyrazolo[3,4-b]pyridin-5-yl)amino]-N-methyl-7H-pyrrolo[2,3-d]pyrimidine-6-carboxamide]	23.4 nM
O=C([C@H]1CCc2c(sc3ncnc(Nc4cnc5[nH]ncc5c4)c23)C1)N1CCOCC1 [Example 102, Morpholin-4-yl[(7S)-4-(1H-pyrazolo[3,4-b]pyridin-5-ylamino)-5,6,7,8-tetrahydro[1]benzothieno[2,3-d]pyrimidin-7-yl]methanone]	27 nM
COCCN(C)C(=O)[C@H]1CCc2c(sc3ncnc(Nc4cc5cn[nH]c5cn4)c23)C1 [Example 57, (7S)—N-(2-Methoxyethyl)-N-methyl-4-(1H-pyrazolo[3,4-c]pyridin-5-ylamino)-5,6,7,8-tetrahydro[1]benzothieno[2,3-d]pyrimidine-7-carboxamide]	15 nM
COc1nc2[nH]ncc2cc1Nc1ncnc2[nH]c(C(=O)N3CCC(N(C)C)CC3)c(Br)c12 [Example 64, {5-Bromo-4-[(6-methoxy-1H-pyrazolo[3,4-b]pyridin-5-yl)amino]-7H-pyrrolo[2,3-d]pyrimidin-6-yl}[4-(dimethylamino)piperidin-1-yl]methanone]	4.2 nM
CN(CCC(F)(F)F)C(=O)[C@H]1CCc2c(sc3ncnc(Nc4cc5cn[nH]c5nc4O)c23)C1 [Example 139, (7S)-4-[(6-Hydroxy-1H-pyrazolo[3,4-b]pyridin-5-yl)amino]-N-methyl-N-(3,3,3-trifluoropropyl)-5,6,7,8-tetrahydro[1]benzothieno[2,3-d]pyrimidine-7-carboxamide]	4.7 nM
N#CC1CN(C(=O)[C@H]2CCc3c(sc4ncnc(Nc5cnc6[nH]ncc6c5)c34)C2)C1 [Example 99, 1-{[(7S)-4-(1H-Pyrazolo[3,4-b]pyridin-5-ylamino)-5,6,7,8-tetrahydro[1]benzothieno[2,3-d]pyrimidin-7-yl]carbonyl}azetidine-3-carbonitrile]	14.5 nM
CN(C)CCNC(=O)c1[nH]c2ncnc(Nc3cc4cn[nH]c4cn3)c2c1Br [Example 120, 5-Bromo-N-[2-(dimethylamino)ethyl]-4-(1H-pyrazolo[3,4-c]pyridin-5-ylamino)-7H-pyrrolo[2,3-d]pyrimidine-6-carboxamide]	14.5 nM
C[C@H]1COCCN1C(=O)c1[nH]c2ncnc(Nc3cnc4[nH]ncc4c3)c2c1Br [Example 75, [5-Bromo-4-(1H-pyrazolo[3,4-b]pyridin-5-ylamino)-7H-pyrrolo[2,3-d]pyrimidin-6-yl][(3S)-3-methymorpholin-4-yl]methanone]	61 nM
CCN(C)C(=O)[C@H]1CCc2c(sc3ncnc(Nc4cnc5[nH]ncc5c4)c23)C1 [Example 92, (7S)—N-Ethyl-N-methyl-4-(1H-pyrazolo[3,4-b]pyridin-5-ylamino)-5,6,7,8-tetrahydro[1]benzothieno[2,3-d]pyrimidine-7-carboxamide]	15.4 nM
FC(F)(F)c1c[nH]c2ncnc(Nc3cnc4[nH]ncc4c3)c12 [Example 15, N-[5-(Trifluoromethyl)-7H-pyrrolo[2,3-d]pyrimidin-4-yl]-1H-pyrazolo[3,4-b]pyridin-5-amine]	28.8 nM
CCCN(C)C(=O)[C@H]1CCc2c(sc3ncnc(Nc4cc5cn[nH]c5nc4O)c23)C1 [Example 113, (7S)-4-[(6-Hydroxy-1H-pyrazolo[3,4-b]pyridin-5-yl)amino]-N-methyl-N-propyl-5,6,7,8-tetrahydro[1]benzothieno[2,3-d]pyrimidine-7-carboxamide]	3.3 nM
O=C(O)c1[nH]c2ncnc(Nc3cc4cn[nH]c4cn3)c2c1Br [Example 14, 5-Bromo-4-(1H-pyrazolo[3,4-c]pyridin-5-ylamino)-7H-pyrrolo[2,3-d]pyrimidine-6-carboxylic acid]	2.8 nM
C[C@@H]1COCCN1C(=O)[C@H]1CCc2c(sc3ncnc(Nc4cnc5[nH]ncc5c4)c23)C1 [Example 103, [(3R)-3-Methylmorpholin-4-yl][(7S)-4-(1H-pyrazolo[3,4-b]pyridin-5-ylamino)-5,6,7,8-tetrahydro[1]benzothieno[2,3-d]pyrimidin-7-yl]methanone]	35.8 nM
CN(CCN(C)C(=O)c1cc2c(Nc3cc4cn[nH]c4cn3)ncnc2[nH]1)Cc1ccccc1 [Example 78, N-{2-[Benzyl(methyl)amino]ethyl}-N-methyl-4-(1H-pyrazolo[3,4-c]pyridin-5-ylamino)-7H-pyrrolo[2,3-d]pyrimidine-6-carboxamide]	7.4 nM
CN(C)CCCNC(=O)c1[nH]c2ncnc(Nc3cnc4[nH]ncc4c3)c2c1Br [Example 125, 5-Bromo-N-[3-(dimethylamino)propyl]-4-(1H-pyrazolo[3,4-b]pyridin-5-ylamino)-7H-pyrrolo[2,3-d]pyrimidine-6-carboxamide]	29.2 nM
COc1nc2[nH]ncc2cc1Nc1ncnc2[nH]c(C(=O)N3CCOC[C@H]3C)c(Br)c12 [Example 66]	8.3 nM
CN(C)C(=O)[C@H]1CCc2c(sc3ncnc(Nc4cnc5[nH]ncc5c4)c23)C1 [Example 59, (7S)—N,N-Dimethyl-4-(1H-pyrazolo[3,4-b]pyridin-5-ylamino)-5,6,7,8-tetrahydro[1]benzothieno[2,3-d]pyrimidine-7-carboxamide]	2.3 nM
O=C([C@H]1CCc2c(sc3ncnc(Nc4cc5cn[nH]c5cn4)c23)C1)N1CCOCC1 [Example 86, Morpholin-4-yl [(7S)-4-(1H-pyrazolo[3,4-c]pyridin-5-ylamino)-5,6,7,8-tetrahydro[1]benzothieno[2,3-d]pyrimidin-7-yl]methanone]	7.1 nM

The remaining lines, values ahead:

IC50	SMILES
1.4 nM	CN(C)C1CCN(C(=O)[C@H]2CCc3c(sc4ncnc(Nc5cc6cn[nH]c6nc5O)c34)C2)CC1 [Example 117, [4-(Dimethylamino)piperidin-1-yl]{(7S)-4-[(6-hydroxy-1H-pyrazolo[3,4-b]pyridin-5-yl)amino]-5,6,7,8-tetrahydro[1]benzothieno[2,3-d]pyrimidin-7-yl}methanone]
4.2 nM	COc1nc2[nH]ncc2cc1Nc1ncnc2sc3c(c12)CC[C@H](C(=O)N(C)C(C)C)C3 [Example 37, (7S)-4-[(6-Methoxy-1H-pyrazolo[3,4-b]pyridin-5-yl)amino]-N-methyl-N-(propan-2-yl)-5,6,7,8-tetrahydro[1]benzothieno[2,3-d]pyrimidine-7-carboxamide]
0.7 nM	COc1nc2[nH]ncc2cc1Nc1ncnc2sc3c(c12)CC[C@H](C(=O)N1CC(C#N)C1)C3 [Example 108, 1-({(7S)-4-[(6-Methoxy-1H-pyrazolo[3,4-b]pyridin-5-yl)amino]-5,6,7,8-tetrahydro[1]benzothieno[2,3-d]pyrimidin-7-yl}carbonyl)azetidine-3-carbonitrile]
4.6 nM	CN(C)[C@@H]1CCN(C(=O)[C@H]2CCc3c(sc4ncnc(Nc5cnc6[nH]ncc6c5)c34)C2)C1 [Example 101, [(3R)-3-(Dimethylamino)pyrrolidin-1-yl][(7S)-4-(1H-pyrazolo[3,4-b]pyridin-5-ylamino)-5,6,7,8-tetrahydro[1]benzothieno[2,3-d]pyrimidin-7-yl]methanone]
1.4 nM	CCCN(C)C(=O)[C@H]1CCc2c(sc3ncnc(Nc4cc5cn[nH]c5nc4OC)c23)C1 [Example 38, (7S)-4-[(6-Methoxy-1H-pyrazolo[3,4-b]pyridin-5-yl)amino]-N-methyl-N-propyl-5,6,7,8-tetrahydro[1]benzothieno[2,3-d]pyrimidine-7-carboxamide]
1.6 nM	COc1nc2[nH]ncc2cc1Nc1ncnc2sc3c(c12)CC[C@H](C(=O)N1C[C@H]2C[C@@H]1CO2)C3 [Example 41]
1.3 nM	COc1nc2[nH]ncc2cc1Nc1ncnc2sc3c(c12)CC[C@H](C(=O)N1CC[C@H](N(C)C)C1)C3 [Example 111, [(3S)-3-(Dimethylamino)pyrrolidin-1-yl]{(7S)-4-[(6-methoxy-1H-pyrazolo[3,4-b]pyridin-5-yl)amino]-5,6,7,8-tetrahydro[1]benzothieno[2,3-d]pyrimidin-7-yl}methanone]
0.9 nM	COc1nc2[nH]ncc2cc1Nc1ncnc2sc3c(c12)CC[C@H](C(=O)N1CCOC[C@H]1C)C3 [Example 44]
11.8 nM	CN(C)C1CN(C(=O)[C@H]2CCc3c(sc4ncnc(Nc5cnc6[nH]ncc6c5)c34)C2)C1 [Example 142, [3-(Dimethylamino)azetidin-1-yl][(7S)-4-(1H-pyrazolo[3,4-b]pyridin-5-ylamino)-5,6,7,8-tetrahydro[1]benzothieno[2,3-d]pyrimidin-7-yl]methanone]
0.3 nM	CCCN(CCOC)C(=O)[C@H]1CCc2c(sc3ncnc(Nc4cc5cn[nH]c5nc4OC)c23)C1 [Example 49, (7S)—N-(2-Methoxyethyl)-4-[(6-methoxy-1H-pyrazolo[3,4-b]pyridin-5-yl)amino]-N-propyl-5,6,7,8-tetrahydro[1]benzothieno[2,3-d]pyrimidine-7-carboxamide]
4.6 nM	CC(C)N(C)C(=O)[C@H]1CCc2c(sc3ncnc(Nc4cc5cn[nH]c5nc4O)c23)C1 [Example 114, (7S)-4-[(6-Hydroxy-1H-pyrazolo[3,4-b]pyridin-5-yl)amino]-N-methyl-N-(propan-2-yl)-5,6,7,8-tetrahydro[1]benzothieno[2,3-d]pyrimidine-7-carboxamide]
